The target of series [1] is T1, COX-2 (Homo sapiens, UniProt P35354).
T1 sequence (P35354 18-604): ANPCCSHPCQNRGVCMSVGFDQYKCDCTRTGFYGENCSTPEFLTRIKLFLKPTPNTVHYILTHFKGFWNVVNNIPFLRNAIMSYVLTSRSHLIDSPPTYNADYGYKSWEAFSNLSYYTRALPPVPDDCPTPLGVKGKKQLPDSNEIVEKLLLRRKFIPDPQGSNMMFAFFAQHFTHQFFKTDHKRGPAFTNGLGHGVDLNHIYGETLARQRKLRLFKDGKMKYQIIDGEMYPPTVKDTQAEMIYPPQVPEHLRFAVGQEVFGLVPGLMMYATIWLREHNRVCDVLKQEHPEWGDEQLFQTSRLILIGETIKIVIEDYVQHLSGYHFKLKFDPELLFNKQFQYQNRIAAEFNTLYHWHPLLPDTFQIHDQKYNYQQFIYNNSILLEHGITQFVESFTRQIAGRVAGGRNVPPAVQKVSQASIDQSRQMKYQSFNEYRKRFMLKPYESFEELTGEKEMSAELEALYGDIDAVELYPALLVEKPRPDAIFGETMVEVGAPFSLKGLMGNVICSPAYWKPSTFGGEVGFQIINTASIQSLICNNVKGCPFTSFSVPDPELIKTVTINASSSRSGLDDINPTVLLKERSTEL
Conditions: comparison values for other COX-2 substrates; cited from earlier work.

Series [2] addresses T1, COX-2. In words: COX-2 fluorescence assay with CoxFluor (fluorimeter / plate reader). It counts as biochemical. Set-up: made in house. The following applies: COX-2 250 nM, 4 h. The procedure: Fluorimeter Fluorescence Assay. The fluorescence assays were performed in microquartz cuvettes or submicroquartz cuvettes with a maximum volume of 600 μL. Reactions were monitored at room temperature using 540 nm excitation and emission was collected from 550-700 nm with a slit width of 1.25 mm. Total volumes of the reaction mixtures were maintained at 570 μL. […] Experiments in the presence of reduced GSH were conducted according to the same procedure, but GSH (30 μL, 19 mM in 100 mM Tris-HCl, pH 8.0) was added before the addition of CoxFluor for a final concentration of 1 mM. Assays performed in submicroquartz cuvettes were performed maintaining the same ratios, but with a final volume of 142.5 μL.
Plate Reader Fluorescence Assay. The fluorescence assays were performed at room temperature using 540 nm excitation and 590 nm emission. Total volume of the reaction mixture was maintained at 190 μL. […] Inhibition assays were performed according to the same procedure, but COX-2 was preincubated with hemin and inhibitor for 0.5 h at 0° C. before initiation with CoxFluor. Relative fluorescence enhancement is calculated by comparing to a buffer control with 10 μM CoxFluor.

The conditions of series [3]: ethanol; cited from earlier work.
The test system of series [4] is COX-2 activity in HEK 293T cells over-expressing human COX-2. The experiment in a line: Confocal live-cell imaging of human COX-2 transfected HEK 293T cells. Type of series: cell-based. The following applies: indomethacin 10 μM, CoxFluor 10 μM, 3 h.
Series [5] can be described thus: CoxFluor, Ctrl-CoxFluor & Resorufin stability assays. The following applies: 8 hours at room temperature or 37° C., with or without ambient light. It counts as physicochemical. The procedure: CoxFluor, Ctrl-CoxFluor & Resorufin Stability Assays. Stability assays were performed for a 10 μM solution of each compound in a series of buffers/solvents (100 mM Tris-HCl at pH 8.0, DMEM with 10% FBS, DMEM without serum and DMSO). Stability was assessed at room temperature or at 37° C. and in the presence or absence of ambient light. Fluorescence was measured using the plate reader with excitation at 540 nm and emission from 560-700 nm and the relative turn-on was determined by the change of fluorescence intensity at 590 nm.

Series [6] in a line: Photophysical characterization. Type of series: physicochemical. The method, then: Photophysical Characterization. Extinction coefficients and fluorescence quantum yields were acquired (n=3) and reported as the average with a relative standard deviation less than 15%. Extinction coefficients were acquired by titrating compound in 100 mM Tris-HCl (pH 8.0) within the linear range. Fluorescence quantum yields were obtained using the modified method for relative fluorescence quantum yield. Dye was titrated into the solution and the absorbance and emission were monitored (excitation at 540 nm). The absorbance was maintained below 0.1 to limit secondary absorbance events. Total emission spectra were integrated, and the relative quantum yield was calculated relative to Rhodamine B (ϕ=0.70, ethanol). The refractive index of 100 mM Tris-HCl (pH 8.0) was measured to be 1.33514.

Substrate in series [7]: CCCCC/C=C\C/C=C\C/C=C\C/C=C\CCCC(=O)N1c2ccc(O)cc2Oc2cc(O)ccc21
In words: COX-2 fluorescence assay with CoxFluor (fluorimeter / plate reader). Conditions: other: steady state; COX-2 50 nM, hemin 200 nM; pH 8.0. It counts as biochemical, human.

In the case of `CCCCC/C=C\C/C=C\C/C=C\C/C=C\CCCC(=O)O` [AA, arachidonic acid], on COX-2 [1], the Km was 6 µM. On to `CCCCCCCCCCCCCCCCCCCC(=O)N1c2ccc(O)cc2Oc2cc(O)ccc21` [Ctrl-CoxFluor], for which the “reactivity with COX-2 under the same reaction conditions” value on COX-2 [2] (hemin 1 μM) is on record as “unreactive”. As for `CCN1C(=O)C=CC1=O` [NEM, N-ethylmaleimide, reference compound], on COX-2 [2] (varying N-ethylmaleimide concentrations, CoxFluor 10 μM), the “effect on COX activity” value was “does not affect COX activity”. Regarding `CCN(CC)c1ccc2c(-c3ccccc3C(=O)O)c3ccc(=[N+](CC)CC)cc-3oc2c1.[Cl-]` [Rhodamine B], the “quantum yield ϕ of reference standard” value in series [3] was 0.70. In the case of `CCCCC/C=C\C/C=C\C/C=C\C/C=C\CCCC(=O)NCCO` [arachidonyl ethanolamide], on COX-2 [1], the Michaelis-Menten constant (Km) was 24 µM. For `COc1ccc2c(c1)c(CC(=O)O)c(C)n2C(=O)c1ccc(Cl)cc1` [indomethacin, reference compound], in series [4], the “fluorescence enhancement of transfected cells upon treatment with inhibitor” value is “no fluorescence enhancement was observed”. As to `O=c1ccc2nc3ccc(O)cc3oc-2c1` [resorufin, reference compound], in series [5], the “stability in Tris-HCl and DMEM buffer systems” value is reported as “stable”. Moreover, in series [6] (100 mM Tris-HCl pH 8.0), the “extinction coefficient ε at 573 nm” value is recorded as 73,000 M^−1cm^−1. In addition, the “fluorescence quantum yield ΦF” value in series [6] (100 mM Tris-HCl pH 8.0, relative to Rhodamine B) is 0.55.

B1: recombinant human COX-2 (Homo sapiens) (protein)
chain: ANPCCSHPCQNRGVCMSVGFDQYKCDCTRTGFYGENCSTPEFLTRIKLFLKPTPNTVHYILTHFKGFWNVVNNIPFLRNAIMSYVLTSRSHLIDSPPTYNADYGYKSWEAFSNLSYYTRALPPVPDDCPTPLGVKGKKQLPDSNEIVEKLLLRRKFIPDPQGSNMMFAFFAQHFTHQFFKTDHKRGPAFTNGLGHGVDLNHIYGETLARQRKLRLFKDGKMKYQIIDGEMYPPTVKDTQAEMIYPPQVPEHLRFAVGQEVFGLVPGLMMYATIWLREHNRVCDVLKQEHPEWGDEQLFQTSRLILIGETIKIVIEDYVQHLSGYHFKLKFDPELLFNKQFQYQNRIAAEFNTLYHWHPLLPDTFQIHDQKYNYQQFIYNNSILLEHGITQFVESFTRQIAGRVAGGRNVPPAVQKVSQASIDQSRQMKYQSFNEYRKRFMLKPYESFEELTGEKEMSAELEALYGDIDAVELYPALLVEKPRPDAIFGETMVEVGAPFSLKGLMGNVICSPAYWKPSTFGGEVGFQIINTASIQSLICNNVKGCPFTSFSVPDPELIKTVTINASSSRSGLDDINPTVLLKERSTEL
notes: made in house
As for B1, in series [7], the Km stood at 22 µM and the kcat worked out at 0.317 s⁻¹.
